Patent publication US20170035742A1, “DURABLE TREATMENT WITH 4-AMINOPYRIDINE IN PATIENTS WITH DEMYELINATION” (Acorda Therapeutics, Inc., priority 2009, published 2017)

Columns and labels:
[1] = Tissue distribution of 14C-labeled 4-aminopyridine 1 mg/kg p.o. in rats; conditions: one hour post-dose
Description: In a single-dose study, rats were administered ^14C-labeled 4-aminopyridine (1 mg/kg) p.o. Three animals per time point were sacrificed 1, 3, 8, and 24 hours post-dose. Blood was collected and tissues were excised for determination of radioactivity.

[2] = Adverse events in controlled clinical studies; format: in vivo, human
Description: In controlled clinical studies involving the use of 4-aminopyridine, the most frequent adverse events by body system occurred in the nervous system, “body as a whole”, and digestive system.
While an increased incidence of such events appears to be moderately dose-related, the susceptibility of individuals is quite variable. As a result of disease pathology, there appears to be potential for more lowering of seizure threshold in people with MS than for people with spinal cord injury; this may result from interaction of the channel-blocking properties of the drug with MS brain pathology in certain individuals.

[3] = Plasma protein binding; format: in vitro ADME; conditions: human
Description: Measurable levels are present in the saliva.

[4] = Single- and repeated-dose toxicity studies; format: in vivo; conditions: after large single doses or repeated lower doses, all species studied
Description: In single- and repeated-dose toxicity studies, the dosing regimen greatly affected the rate of side effects. […] These clinical signs were not unexpected and represent exaggerated pharmacology of 4-aminopyridine.

[5] = system: patients with multiple sclerosis; test: MS-F203EXT open-label extension study; conditions: over two years open-label
Description: This extension study (MS-F203EXT) monitored efficacy and safety during open-label treatment of patients from MS-F203. Design/methods: Patients were treated with 10 mg fampridine bid, and were assessed in the clinic at 2, 14, and 26 weeks and every 6 months thereafter. Eligibility criteria included: definite MS; age 18-70; Timed 25-Foot Walk (T25FW) times of 8-45 seconds at screening for MS-F203. Efficacy was analyzed by the proportion of Extension Timed Walk Responders (ETWRs) whose walking was faster during the majority of visits than their fastest off-treatment speed.
MS-F203EXT monitored efficacy and safety during open-label treatment of patients from MS-F203. Patients were treated with 10 mg fampridine bid, and were assessed in the clinic at 2, 14, and 26 weeks and every 6 months thereafter. Eligibility criteria included: definite MS; age 18-70; Timed 25-Foot Walk (T25FW) times of 8-45 seconds at screening for MS-F203. Efficacy was analyzed by the proportion of Extension Timed Walk Responders (ETWRs) whose walking was faster during the majority of visits than their fastest off-treatment speed. […] There are safety assessments, a timed 25 Foot Walk assessment, Clinician and Subject Global Impression at each visit. An EDSS assessment is performed every 2 years.
Timed walk response in the extension study was measured using the Timed 25-Foot Walk (T25W). […]

[6] = Rat i.v. and p.o. pharmacokinetics, 2 mg/kg (M 2001-03); conditions: AUC(0-∞) p.o. vs i.v.

Row | Molecule | dose accounted for in total [1] [%] | radioactivity in blood, percent of dose [1] [%] | radioactivity in kidney, percent of dose [1] [%] | radioactivity in liver, percent of dose [1] [%] | most common nervous system adverse events [2] | most frequently reported event in the digestive system category [2] | unbound to plasma proteins [3] | clinical signs [4] | safety profile [5] | bioavailability ([6]; female rats) [%] | bioavailability ([6]; male rats)
1 | ^14C-4-Aminopyridine | 58.3 | 0.7 | 1.6 | 2.6 |  |  |  |  |  |  | 
2 | Nc1ccncc1 [4-aminopyridine] |  |  |  |  | Dizziness, insomnia, paresthesia, pain, headache and asthenia | nausea | 97-99% | tremors, convulsions, ataxia, dyspnea, dilated pupils, prostration, abnormal vocalization, increased respiration, excess salivation, gait abnormalities, and hyper- and hypo-excitability | No new safety issues emerged | ~55 | approximately 66.5%
